Source: publication PMC9721426, “Novel piperine-carboximidamide hybrids: design, synthesis, and antiproliferative activity via a multi-targeted inhibitory pathway” (Journal of Enzyme Inhibition and Medicinal Chemistry, 2022)

Assays:
[1] = target: T1, EGFR (Homo sapiens, UniProt P00533); experiment: EGFR-TK inhibitory assay; assay type: biochemical; settings: EGFR-TK assay; read-out: EGFR inhibition IC50 ± SEM
T1 construct: cytoplasmic domain (EGFR -CD, amino acids 645–1186); His6 (N); made in house; host or cells: Sf-9 insect cells (baculovirus, pBlueBacHis2B / pFASTBacHTc)
T1 sequence (P00533 669-1210): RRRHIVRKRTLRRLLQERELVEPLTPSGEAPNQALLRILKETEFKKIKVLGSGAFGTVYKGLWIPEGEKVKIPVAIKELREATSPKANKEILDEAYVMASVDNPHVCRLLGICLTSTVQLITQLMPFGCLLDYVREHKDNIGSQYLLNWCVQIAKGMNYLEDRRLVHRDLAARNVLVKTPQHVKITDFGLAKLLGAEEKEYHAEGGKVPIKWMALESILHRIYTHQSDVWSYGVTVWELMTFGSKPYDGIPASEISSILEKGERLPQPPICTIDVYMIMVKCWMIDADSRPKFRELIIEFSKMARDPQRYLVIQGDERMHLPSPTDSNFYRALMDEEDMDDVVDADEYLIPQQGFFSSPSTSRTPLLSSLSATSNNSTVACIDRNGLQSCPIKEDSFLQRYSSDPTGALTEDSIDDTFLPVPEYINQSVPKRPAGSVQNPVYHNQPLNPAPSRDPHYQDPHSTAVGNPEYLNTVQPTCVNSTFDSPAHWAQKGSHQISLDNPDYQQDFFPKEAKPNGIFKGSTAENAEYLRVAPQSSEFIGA
Method: 4.2.1.3. EGFR inhibitory assay
EGFR-TK assay was performed to evaluate the inhibitory potency of the tested compounds against EGFR30. Baculoviral expression vectors including pBlueBacHis2B […]
sequence comprised a sequence that encoded (His) 6. Sf-9 cells were infected for 72h for protein expression. The pellets of Sf-9 cells were solubilized in a buffer containing sodium vanadate (100 µM), aprotinin (10 µg/mL), triton (1%), HEPES buffer (50mM), ammonium molybdate (10 µM), benzamidine HCl (16 µg/mL), NaCl (10 mM), leupeptin (10 µg/mL) and pepstatin (10 µg/mL) at 0°C for 20 min at pH 7.4, followed by centrifugation for 20 min. To eliminate the non-specifically bound material, a Ni-NTA super flow packed column was used to pass through and wash the crude extract supernatant first with 10 mM and then with 100 mM imidazole. […]
NaCl (50 mM), HEPES (20 mM), glycerol (10%) and 1 µg/mL each of aprotinin, leupeptin and pepstatin for 120 min. The purification was performed either at 4 °C or on ice. To record autophosphorylation level, EGFR kinase assay was carried out on the basis of DELFIA/Time-Resolved Fluorometry. The compounds were first dissolved in DMSO […]
pH 7.4. Each compound (10 µL) was incubated with recombinant enzyme (10 µL, 5 ng for EGFR, 1:80 dilution in 100 mM HEPES) for 10 min at 25 °C, subsequent to the addition of 5X buffer (10 µL, containing 2 mM MnCl2, 100 µM Na3VO4, 20 mM HEPES and 1 mM DTT) and ATP-MgCl2 (20 µL, containing 0.1 mM ATP and 50 mM MgCl 2) and incubation for 1h. The negative and positive controls were included in each plate by the incuba tion of enzyme either with or without ATP -MgCl2. The liquid was removed after incubation and the plates were washed thrice using wash buffer. Europium -tagged antiphosphotyrosine antibody (75 µL, 400 ng) was added to each well followed by incubation of 1h a nd then washing of the plates using buffer. The enhancement solution was added to each well and the signal was recorded at excitation and emission […]
The autophosphorylation percentage inhibition by compounds was calculated using the following equation: […]
Using the curves of percentage inhibition of eight concentrations of each compound, IC 50

[2] = test system: Panc-1 (pancreatic cancer cell line); experiment: Antiproliferative MTT assay, Panc-1; assay type: cell-based; settings: Homo sapiens; Panc-1, MTT; read-out: Antiproliferative activity IC50 ± SEM, Panc-1
Method: (§1) The MTT assay was performed using various cell lines in accordance with previously reported procedures[28]^,[29] to investigate the antiproliferative potential of VIa-k. Refer to Appendix A. […]
(§2) added (in 200 μL medium to yield a final concentration of 0.1% v/v) to the wells of plates. A single compound was designated with four wells followed by incubation of […]
(§3) After incubation, medium was removed completely from the plates followed by addition of MTT (0.4 mg/mL in medium) to each well and subsequent incubation of plates for 3h. MTT (along with the medium) was removed and DMSO (150μL) was added to each well of the culture plates, followed by vortexing and subsequent measurement of absorbance (at 540 nm) using microplate reader. The data are shown as percentage inhibition of proliferation in comparison with controls containing 4.2.1.2. Assay for antiproliferative effect […]
(§4) The percentage cytotoxicity of compounds was calculated using the following […]
(§5) Where ATC= Absorbance of treated cells and AC= Absorbance of control. […]
(§6) used as positive control in the assay. […]

[3] = target: Human CDK2/A2 (Homo sapiens, UniProt P24941); experiment: CDK2 inhibitory assay
Method: Protein Kinase Assays. Human CDK2/A2 was purchased from New England Biolabs IC50 values for CDK2/A were determined according to the supplier’s instructions

[4] = MTT cell viability assay on normal mammary epithelial cells; assay type: cell-based; settings: human, MCF-10A normal cells, 4 days incubation
Method: A human mammary gland epithelial (MCF-10A) normal cell line was used to perform the viability test. The viability of compounds VIa-k was determined using the MTT assay after 4 days of incubation with MCF-10A cells[26]^,[27].
The MTT assay was used to assess how the synthetic compounds impacted the viability of mammary epithelial cells (MCF-10A)[26]^,[27]. Appendix A. […]
4.2. Biological evaluation
4.2.1. Cytotoxic activity using MTT Assay and evaluation of IC50
MTT assay was carried out to study the effect of compounds on mammary epithelial cells (MCF-10A)26,27. The medium in which cells were propagated contained Dulbecco's modified Eagle's medium (DMEM)/ Ham's F-12 medium (1:1) supplemented with epidermal growth factor (20 ng/mL), hydrocortisone (500 ng/mL), insulin (10 μg/mL), 2 mM glutamine and 10% foetal calf serum. After every 2-3 days, the cells were passaged using trypsin ethylenediamine tetra acetic acid (EDTA). The cells were seeded at a density of 10^4 cells mL-1 in flat-bottomed culture plates containing 96 wells each. […]
A single compound was designated with four wells followed by incubation of plates for 96h at 37°C. After incubation, medium was removed completely from the plates followed by addition of MTT (0.4 mg/mL in medium) to each well and subsequent incubation of plates for 3h. MTT (along with the medium) was removed and DMSO (150μL) was added to each well of the culture plates, followed by vortexing and subsequent measurement of absorbance (at 540 nm) using microplate reader. […]

[5] = test system: four human cancer cell lines (Panc-1, MCF-7, HT-29, A-549); experiment: Antiproliferative MTT assay, average (GI50) over the four cancer cell lines; assay type: cell-based; settings: Homo sapiens; average of IC50 versus A-549, MCF-7, Panc-1, HT-29
Method: The average (GI50) versus the four cancer cell lines was chosen for ease of manipulation.
as §1, §2, §3, §4, §5, §6

[6] = test system: HT-29 (colon cancer cell line); experiment: Antiproliferative MTT assay, HT-29; assay type: cell-based; settings: Homo sapiens; HT-29, MTT; read-out: Antiproliferative activity IC50 ± SEM, HT-29
Method: as §1, §2, §3, §4, §5, §6

[7] = MCF-10A mammary epithelial cells

IC50 [1]	IC50 [2]	IC50 [3]	GI50 [5]	IC50 [6]	CDK2 potency relative to the reference dinaciclib (more potent) ([3]; ratio of IC50 values)	Compound	viability at 4 days, 50 µM [4, 7]	viability at 4 days, 50 µM ([4]; MCF-10A normal mammary gland epithelial cells)
112 ± 8 nM	53 ± 5 nM	23 ± 2 nM	50 nM	55 ± 5 nM		NC(=NOC(=O)/C=C/C=C/c1ccc2c(c1)OCO2)c1ccc(Br)cc1 [VIc, N'-{[(2E,4E)-5-(2H-1,3-Benzodioxol-5-yl)penta-2,4-dienoyl]oxy}-4-bromobenzene-1-carboximidamide]	86%	
127 ± 10 nM	36 ± 3 nM	12 ± 2 nM	35 nM	38 ± 3 nM	1.5 fold	N/C(=N/OC(=O)/C=C/C=C/c1ccc2c(c1)OCO2)c1ccc2c(c1)OCO2 [VIk]		89%
105 ± 7 nM	45 ± 4 nM	21 ± 2 nM	44 nM	47 ± 4 nM		NC(=NOC(=O)/C=C/C=C/c1ccc2c(c1)OCO2)c1ccccc1Cl [VIf, N'-{[(2E,4E)-5-(2H-1,3-benzodioxol-5-yl)penta-2,4-dienoyl]oxy}-2-chlorobenzene-1-carboximidamide]	90%	
